Measured values reported in PMC10041525, “New Dual Inhibitors of Bacterial Topoisomerases with Broad-Spectrum Antibacterial Activity and In Vivo Efficacy against Vancomycin-Intermediate Staphylococcus aureus” (Journal of Medicinal Chemistry, 2023).
“And” between values parts separate entries of the source, which are not always exact repeats. Equal values may be shown once. Read-outs that look alike come from different tables or passages of the source.

Columns and labels:
S. pneumoniae (n = 12) = assay: MIC broth microdilution at IHMA Europe; assay type: cell-based; details: for MIC: Streptococcus pneumoniae, read-out: MIC
E. faecium (n = 13) = assay: MIC broth microdilution at IHMA Europe; assay type: cell-based; details: for MIC: Enterococcus faecium, read-out: MIC
E. faecalis ATCC 29212 [1] = test system: E. faecalis ATCC 29212; set-up: method as in earlier work; details: QC range for E. faecalis ATCC 29212, ref CLSI; cited from earlier work
E. coli ATCC 25922 = test system: E. coli ATCC 25922; set-up: method as in earlier work; details: QC range for E. coli ATCC 25922, ref CLSI; cited from earlier work
H. influenzae ATCC 49247 = test system: H. influenzae ATCC 49247; set-up: method as in earlier work; details: QC range for H. influenzae ATCC 49247, ref CLSI; cited from earlier work
[2] = test system: Haemophilus influenzae (n = 14); assay: MIC broth microdilution at IHMA Europe; assay type: cell-based, H. influenzae; details: for MIC: Haemophilus influenzae, read-out: MIC
P. aeruginosa ATCC 27853 = test system: P. aeruginosa ATCC 27853; set-up: method as in earlier work; details: QC range for P. aeruginosa ATCC 27853, ref CLSI; cited from earlier work
E. faecalis ATCC 29212 [3] = assay: IHMA QC MIC; assay type: cell-based
Text: Supplement jm2c01905_si_004.xlsx, sheet "QC" | column: MIC [µg/mL]

hemolysis assay = assay type: cell-based; details: human, red blood cells, pH 7.4; read-out: Haemolysis
Protocol: RBCs were washed three times in Tyrode buffer (130 mM NaCl, 4 mM KCl, 2.8 mM Na acetate, 1 mM MgCl2, 10 mM HEPES, 10 mM glucose, 1 mM CaCl2, adjusted to pH 7.4) and resuspended in the same buffer. Final concentrations in the hemolysis assay were 100 μM compound, 1% DMSO, and 50% RBC, assayed in a 200 μL volume in a microtiter plate. The mixture was incubated at 37 °C for 45 min with shaking (250 rpm). After incubation, RBCs were removed by centrifugation, clear plasma was transferred to a fresh plate, and the amount of hemoglobin was measured using a spectrophotometer at 540 nm. The complete lysis control contained 2% Triton X-100 (in Tyrode buffer) instead of compound; the negative control contained Tyrode buffer but no compound. Percent hemolysis was calculated as: [Abs compound] – [Abs negative control]/[Abs complete lysis control] – [Abs negative control] × 100. Values greater than 1% hemolysis at 100 μM were regarded as a red flag.

[4] = test system: Neisseria gonorrhoeae (n = 12); assay: MIC broth microdilution at IHMA Europe; assay type: cell-based; details: for MIC: Neisseria gonorrhoeae, read-out: MIC
[5] = Enterococcus faecalis, ATCC29212
[6] = QC strain E. faecalis ATCC 29212, test date 2021-11-26

C[C@H]1COc2c(N3CCN(C)CC3)c(F)cc3c(=O)c(C(=O)O)cn1c23.C[C@H]1COc2c(N3CCN(C)CC3)c(F)cc3c(=O)c(C(=O)O)cn1c23.O [Levofloxacin, levofloxacin]
0.008 µg/mL: MIC ([2]; H. influenzae IHMA N° 2047461)
32 µg/mL: MIC (E. faecium (n = 13); E. faecium IHMA N° 1904592) | MIC (E. faecium (n = 13); E. faecium IHMA N° 2083787)
0.5 µg/mL: MIC (S. pneumoniae (n = 12); S. pneumoniae IHMA N° 1776057) | MIC (S. pneumoniae (n = 12); S. pneumoniae IHMA N° 1785617) | MIC (S. pneumoniae (n = 12); S. pneumoniae IHMA N° 1811259) | MIC (S. pneumoniae (n = 12); S. pneumoniae IHMA N° 1979675) | MIC (S. pneumoniae (n = 12); S. pneumoniae IHMA N° 2117109)
0,5 - 4 µg/mL: MIC, CLSI Range (P. aeruginosa ATCC 27853)
0.015 µg/mL: MIC ([2]; H. influenzae IHMA N° 1227715) | MIC ([2]; H. influenzae IHMA N° 1244149) | MIC ([2]; H. influenzae IHMA N° 1249803) | MIC ([2]; H. influenzae IHMA N° 1258580) | MIC ([2]; H. influenzae IHMA N° 1262734) | MIC ([2]; H. influenzae IHMA N° 1272723) | MIC ([2]; H. influenzae IHMA N° 1286846) | MIC ([2]; H. influenzae IHMA N° 1337530) | MIC ([2]; H. influenzae IHMA N° 1440085) | MIC ([2]; H. influenzae IHMA N° 1952952)
1 µg/mL: MIC (S. pneumoniae (n = 12); S. pneumoniae IHMA N° 1775387) | MIC (S. pneumoniae (n = 12); S. pneumoniae IHMA N° 1800765) | MIC (S. pneumoniae (n = 12); S. pneumoniae IHMA N° 1831562) | MIC (S. pneumoniae (n = 12); S. pneumoniae IHMA N° 1902609) | MIC (S. pneumoniae (n = 12); S. pneumoniae IHMA N° 2057487) | MIC (S. pneumoniae (n = 12); S. pneumoniae IHMA N° 2073087) | MIC (E. faecalis ATCC 29212 [3]; [5]) | MIC (E. faecalis ATCC 29212 [3]; [6])
> 32 µg/mL: MIC (S. pneumoniae (n = 12); S. pneumoniae IHMA N° 1991963) | MIC (E. faecium (n = 13); E. faecium IHMA N° 1764866) | MIC (E. faecium (n = 13); E. faecium IHMA N° 1765436) | MIC (E. faecium (n = 13); E. faecium IHMA N° 1765746) | MIC (E. faecium (n = 13); E. faecium IHMA N° 1893573) | MIC (E. faecium (n = 13); E. faecium IHMA N° 1893846) | MIC (E. faecium (n = 13); E. faecium IHMA N° 1893942) | MIC (E. faecium (n = 13); E. faecium IHMA N° 1894055) | MIC (E. faecium (n = 13); E. faecium IHMA N° 1897027) | MIC (E. faecium (n = 13); E. faecium IHMA N° 1897101) | MIC (E. faecium (n = 13); E. faecium IHMA N° 2075051) | MIC (E. faecium (n = 13); E. faecium IHMA N° 2077718)
0,008 - 0,03 µg/mL: MIC, CLSI Range (H. influenzae ATCC 49247)
≤ 0.004 µg/mL: MIC ([2]; H. influenzae IHMA N° 1241620)
0,008 - 0,06 µg/mL: MIC, CLSI Range (E. coli ATCC 25922)
0,25 - 2 µg/mL: MIC, CLSI Range (E. faecalis ATCC 29212 [1])
0.0015 µg/mL: MIC ([2]; H. influenzae IHMA N° 1479509)
0.12 µg/mL: MIC ([2]; H. influenzae IHMA N° 1254355)
5: No. of isolates at MIC (S. pneumoniae (n = 12); MIC 0.5 µg/mL)

Cc1[nH]c(C(=O)Nc2nc3c(N4CCOCC4)cc(C(=O)O)cc3s2)c(Cl)c1Cl [7a, 2-(3,4-Dichloro-5-methyl-1H-pyrrole-2-carboxamido)-4-morpholinobenzo[d]thiazole-6-carboxylic Acid]
≤ 0.5 µg/mL: MIC, all isolates (S. pneumoniae (n = 12); n = 12)
0.5 µg/mL: MIC (S. pneumoniae (n = 12); S. pneumoniae IHMA N° 1775387) | MIC (S. pneumoniae (n = 12); S. pneumoniae IHMA N° 1776057) | MIC (S. pneumoniae (n = 12); S. pneumoniae IHMA N° 1800765) | MIC (S. pneumoniae (n = 12); S. pneumoniae IHMA N° 1831562) | MIC (S. pneumoniae (n = 12); S. pneumoniae IHMA N° 1902609) | MIC (S. pneumoniae (n = 12); S. pneumoniae IHMA N° 1979675) | MIC (S. pneumoniae (n = 12); S. pneumoniae IHMA N° 1991963) | MIC (S. pneumoniae (n = 12); S. pneumoniae IHMA N° 2057487) | MIC (S. pneumoniae (n = 12); S. pneumoniae IHMA N° 2073087) | MIC ([2]; H. influenzae IHMA N° 1244149) | MIC ([2]; H. influenzae IHMA N° 1258580) | MIC ([2]; H. influenzae IHMA N° 1286846) | MIC ([2]; H. influenzae IHMA N° 1440085)
100.0%: Cumulative % at MIC ([2]; MIC 1 µg/mL)
8 and 5: No. of isolates at MIC (E. faecium (n = 13))
3 and 6 and 4: No. of isolates at MIC [2]
0.25 µg/mL: MIC (S. pneumoniae (n = 12); S. pneumoniae IHMA N° 1785617) | MIC ([2]; H. influenzae IHMA N° 1241620) | MIC ([2]; H. influenzae IHMA N° 1254355) | MIC ([2]; H. influenzae IHMA N° 1262734) | MIC ([2]; H. influenzae IHMA N° 1272723) | MIC ([2]; H. influenzae IHMA N° 1952952) | MIC ([2]; H. influenzae IHMA N° 2047461)
25.0%: Cumulative % at MIC (S. pneumoniae (n = 12); MIC […])
≤ 0.06 µg/mL: MIC, all isolates ([4]; n = 12)
1: No. of isolates at MIC ([2]; MIC 1 µg/mL)
≤ 1 µg/mL: MIC, all isolates ([2]; n = 14)
61.5% and 100.0%: Cumulative % at MIC (E. faecium (n = 13))
1 µg/mL: MIC ([2]; H. influenzae IHMA N° 1479509)
6: No. of isolates at MIC [4] | No. of isolates at MIC ([4]; MIC 0.06 µg/mL)
50.0% and 100.0%: Cumulative % at MIC [4]
≤ 0.03 µg/mL: MIC ([4]; isolate IHMA 1123853) | MIC ([4]; isolate IHMA 1130935) | MIC ([4]; isolate IHMA 1145734) | MIC ([4]; isolate IHMA 1145735) | MIC ([4]; isolate IHMA 1165897) | MIC ([4]; isolate IHMA 1194748)
0.28 ± 0.01%: hemolysis at 45 min, 100 μM (hemolysis assay)
0.12 µg/mL: MIC (S. pneumoniae (n = 12); S. pneumoniae IHMA N° 2117109) | MIC (E. faecium (n = 13); E. faecium IHMA N° 1893846) | MIC (E. faecium (n = 13); E. faecium IHMA N° 1893942) | MIC (E. faecium (n = 13); E. faecium IHMA N° 1894055) | MIC (E. faecium (n = 13); E. faecium IHMA N° 1897027) | MIC (E. faecium (n = 13); E. faecium IHMA N° 2075051) | MIC ([2]; H. influenzae IHMA N° 1227715) | MIC ([2]; H. influenzae IHMA N° 1249803) | MIC ([2]; H. influenzae IHMA N° 1337530)
0.06 µg/mL: MIC (S. pneumoniae (n = 12); S. pneumoniae IHMA N° 1811259) | MIC (E. faecium (n = 13); E. faecium IHMA N° 1764866) | MIC (E. faecium (n = 13); E. faecium IHMA N° 1765436) | MIC (E. faecium (n = 13); E. faecium IHMA N° 1765746) | MIC (E. faecium (n = 13); E. faecium IHMA N° 1893573) | MIC (E. faecium (n = 13); E. faecium IHMA N° 1897101) | MIC (E. faecium (n = 13); E. faecium IHMA N° 1904592) | MIC (E. faecium (n = 13); E. faecium IHMA N° 2077718) | MIC (E. faecium (n = 13); E. faecium IHMA N° 2083787) | MIC (E. faecalis ATCC 29212 [3]; [5]) | MIC (E. faecalis ATCC 29212 [3]; [6]) | MIC ([4]; isolate IHMA 1130989) | MIC ([4]; isolate IHMA 1130991) | MIC ([4]; isolate IHMA 1137292) | MIC ([4]; isolate IHMA 1194750) | MIC ([4]; isolate IHMA 1546199) | MIC ([4]; isolate IHMA 1546215)
≤ 0.12 µg/mL: MIC, all isolates (E. faecium (n = 13); n = 13)
